Data published in US20260232691A1, “NBD1 MODULATORS AND METHODS OF USING THE SAME” (Sionna Therapeutics Inc., priority 2023, published 2026).

What was measured:
NBD1 = experiment: Aggregation analysis using differential static light scattering (DSLS), thermal stability of NBD1; assay type: binding, Human; conditions: 100 μM compound; ΔTagg = Tagg minus average Tagg of DMSO control wells; purified recombinant NBD1
Procedure: Purified recombinant NBD1 was produced using previously described methods (A. Schmidt, J. L. Mendoza, P. J. Thomas (2011) Biochemical and Biophysical Approaches to Probe CFTR Structure (365-376) M. D. Amaral, K. Kunzelmann (eds.), Cystic Fibrosis, Methods in Molecular Biology 741, Springer Science+Business Media). The effect of test compounds on thermal stability of NBD1 was evaluated by differential static light scattering (DSLS) using the Harbinger Stargazer-384 instrument (Epiphyte Three, Toronto, Canada). Test compounds were dissolved and diluted to desired concentrations in 100% DMSO. The compounds or DMSO controls (100 nL) were stamped into wells of a […] low volume optical plate (Corning Inc., Corning, NY) using the Echo 555 acoustic liquid handler (Labcyte Inc., San Jose, CA).
NBD1 protein was diluted to 0.2 mg/ml in S200 buffer (50 mM Tris-HCl, 150 mM NaCl, 5 mM MgCl2, 2 mM ATP, 2 mM DTT, pH7.6) containing 1% glycerol. 10 uL of protein solution was aliquoted into the 384-well plate harboring the test compounds and 10 uL mineral oil was overlayed onto the protein solution, using the epMotion robotic liquid handler (Eppendorf North America, Hauppauge, NY). After placing into the Stargazer instrument, the plate was heated at 1° C. per minute to 70° C. Images were captured from 25° C. to 70° C. every 0.5° C. At the end of the experiment run, instrument software integrated image files and analyzed data automatically. A […] regression curve was generated for each well, representing the increase in light scattering over time. A temperature of aggregation (Tagg) was calculated based on the inflection point of the curve. To better compare data across experiments the average Tagg for DMSO control wells was calculated and subtracted from values for wells containing compounds to obtain a “ΔTagg” value. These ΔTagg values reflect stabilizing efficacy of the compounds.

[1] = target: T1, CFTR (primary human bronchial epithelial cells from a ΔF508 homozygous CF donor, CF-HBE cells) (Homo sapiens, UniProt P13569, DEL508-508); experiment: TECC24 recording of CFTR-mediated transepithelial chloride transport, AUC fold over DMSO; assay type: cell-based; conditions: test agent AUC of forskolin-stimulated IEQ divided by vehicle (DMSO) AUC, 48 hours incubation
T1 construct: Primary human bronchial epithelial cells from a ΔF508 homozygous CF donor; host or cells: primary human bronchial epithelial cells (CF-HBE), ΔF508/ΔF508 donor
T1 sequence (P13569 with tags, fused parts or gaps DEL508-508): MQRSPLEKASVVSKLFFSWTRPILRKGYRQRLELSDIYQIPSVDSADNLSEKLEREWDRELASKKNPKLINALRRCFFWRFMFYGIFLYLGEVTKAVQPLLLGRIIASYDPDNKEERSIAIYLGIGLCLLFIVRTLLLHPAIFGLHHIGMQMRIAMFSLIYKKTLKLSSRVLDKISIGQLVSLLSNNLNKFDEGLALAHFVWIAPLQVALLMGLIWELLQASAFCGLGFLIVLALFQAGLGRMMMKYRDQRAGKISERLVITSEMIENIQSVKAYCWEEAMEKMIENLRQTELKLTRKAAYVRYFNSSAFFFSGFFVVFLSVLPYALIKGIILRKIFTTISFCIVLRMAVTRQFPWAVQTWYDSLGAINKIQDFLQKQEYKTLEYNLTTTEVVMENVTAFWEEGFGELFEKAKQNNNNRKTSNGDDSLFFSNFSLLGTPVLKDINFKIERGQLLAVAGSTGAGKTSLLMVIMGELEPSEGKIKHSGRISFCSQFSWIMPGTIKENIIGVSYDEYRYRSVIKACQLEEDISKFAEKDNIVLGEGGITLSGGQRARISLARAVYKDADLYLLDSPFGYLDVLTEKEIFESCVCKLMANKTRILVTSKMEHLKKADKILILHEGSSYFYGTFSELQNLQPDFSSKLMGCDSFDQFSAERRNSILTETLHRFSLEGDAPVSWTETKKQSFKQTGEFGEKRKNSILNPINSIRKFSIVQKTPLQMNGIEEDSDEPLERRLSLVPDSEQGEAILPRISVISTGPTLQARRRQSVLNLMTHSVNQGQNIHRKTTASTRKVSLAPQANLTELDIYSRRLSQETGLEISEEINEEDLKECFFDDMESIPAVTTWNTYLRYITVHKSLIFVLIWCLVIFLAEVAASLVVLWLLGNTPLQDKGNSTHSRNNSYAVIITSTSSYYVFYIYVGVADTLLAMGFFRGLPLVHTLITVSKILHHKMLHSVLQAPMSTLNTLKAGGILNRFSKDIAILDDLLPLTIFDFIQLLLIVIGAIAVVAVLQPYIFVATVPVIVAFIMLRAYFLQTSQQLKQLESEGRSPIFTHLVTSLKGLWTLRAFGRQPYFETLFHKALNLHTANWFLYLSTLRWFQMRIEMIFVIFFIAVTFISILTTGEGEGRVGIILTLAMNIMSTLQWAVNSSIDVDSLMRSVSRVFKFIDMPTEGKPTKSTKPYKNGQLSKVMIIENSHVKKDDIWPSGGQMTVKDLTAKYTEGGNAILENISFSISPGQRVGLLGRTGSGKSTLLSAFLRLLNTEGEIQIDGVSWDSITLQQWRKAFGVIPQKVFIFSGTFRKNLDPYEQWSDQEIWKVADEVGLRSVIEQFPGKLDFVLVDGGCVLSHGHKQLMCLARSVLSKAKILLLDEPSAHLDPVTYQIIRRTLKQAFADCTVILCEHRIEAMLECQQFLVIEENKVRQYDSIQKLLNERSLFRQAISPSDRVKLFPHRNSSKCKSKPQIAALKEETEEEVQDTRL
Procedure: The effects of a test agent on CFTR-mediated transepithelial chloride transport was measured using TECC24 recording analysis. Test agents were solubilized in DMSO. Solubilized test agents were mixed with incubation medium containing DMEM/F12, Ultroser G (2%; Crescent Chemical, catalog #67042), Hyclone Fetal Clone II (2%; GE Healthcare, catalog #SH30066.02), bovine brain extract (0.25%; Lonza, catalog #CC-4098), insulin ([…]), IL-13 (10 ng/mL), hydrocortisone (20 nM), transferrin ([…]), triiodothyronine (500 nM), ethanolamine (250 nM), epinephrine (1.5 μM), phosphoethanolamine (250 nM), and retinoic acid (10 nM). Primary human bronchial epithelial cells from a ΔF508 homozygous CF donor (CF-HBE cells; from University of North Carolina Cystic Fibrosis Tissue Procurement Center), grown on Transwell HTS 24-well cell culture inserts (Costar, catalog #3378), were exposed to test agents or controls dissolved in incubation medium. The CF-HBE cells were cultured at 36.5° C. for 48 hours before TECC24 recordings were performed in the presence or absence of test agent, a positive control or vehicle (DMSO).
Following incubation, the transwell cell culture inserts containing the test agent or control-treated CF-HBE cells were loaded onto a TECC24 apparatus (TECC v7 or MTECC v2; EP Design) to record the transepithelial voltage (VT) and resistance (TEER) using 4 AgCl electrodes per well configured in current-clamp mode. The apical and basolateral bath solutions both contained (in mM) 140 NaCl, 5 KCl, 2 CaCl2), 1 MgCl2, 10 Hepes, and 10 glucose (adjusted to pH 7.4 with NaOH). To inhibit basal Na+ absorption, the ENaC inhibitor benzamil (10 μM) was added to the bath. Then, the adenylate cyclase activator, forskolin (10 μM), was added to the bath to activate CFTR. The forskolin-stimulated Cl—transport was halted by addition of CFTR inhibitor-172 (20 μM) to the bath at the end of the experiment to confirm specificity. VT and TEER recordings were digitally acquired at routine intervals using TECC or MTECC software (EP Design). VT and TEER were transformed into equivalent transepithelial Cl—current (IEQ), and the Area Under the Curve (AUC) of the IEQ time course between forskolin and CFTR inhibitor-172 addition is generated using Excel (Microsoft). Efficacy is expressed as the ratio of the test agent AUC divided by vehicle AUC. EC50s based on AUC are generated using the non-linear regression log(agonist) vs. response function in Prism software (Graphpad) with HillSlope fixed=1.
If a test agent increased the AUC of the forskolin-stimulated IEQ relative to vehicle in CF-HBE cells, and this increase was inhibited by CFTR inhibitor-172, then the test agent was considered a CFTR corrector.

Row | SMILES | DSLS NBD1/3D Human Stability delta-T (° C.) @ 100 (μM) (NBD1) | TECC24 @ 10 uM over DMSO [1]
1 | C[C@@H](c1cccc(CC(=O)O)c1F)c1cnc2n1CCc1ccc(Oc3c(F)cc4[nH]ccc4c3F)cc1-2 (single isomer, unassigned) [Example 1] | A (A: T ≥ 8° C.) | 
2 | C[C@H](c1cccc(CC(=O)O)c1F)c1cnc2n1CCc1ccc(Oc3c(F)cc4[nH]ccc4c3F)cc1-2 (single isomer, unassigned) [Example 2] | A (A: T ≥ 8° C.) | 
3 | C[C@@H](c1cccc(CCC(=O)O)c1F)c1cnc2n1CCc1ccc(Oc3c(F)cc4[nH]ccc4c3F)cc1-2 (single isomer, unassigned) [Example 5] | B (B: 4-8° C.) | C (“C” refers to AUC @10 uM <= 4)
4 | C[C@H](c1cccc(CCC(=O)O)c1F)c1cnc2n1CCc1ccc(Oc3c(F)cc4[nH]ccc4c3F)cc1-2 (single isomer, unassigned) [Example 6] | A (A: T ≥ 8° C.) | A (“A” refers to AUC @10 uM >= 12)
5 | CC(c1nc2n(n1)CC(O)COc1ccc(Oc3c(F)cc4[nH]ccc4c3F)cc1-2)c1cccc(CCC(=O)O)c1F (single isomer, unassigned) [Example 13, 3-[3-[1-[14-[(4,6-difluoro-1H-indol-5-yl)oxy]-8-hydroxy-10-oxa-3,5,6-triazatricyclo[9.4.0.02,6]pentadeca-1(15),2,4,11,13-pentaen-4-yl]ethyl]-2-fluoro-phenyl]propanoic acid] | A (A: T ≥ 8° C.) | C (“C” refers to AUC @10 uM <= 4)
6 | CC(c1nc2n(n1)CC(O)COc1ccc(Oc3c(F)cc4[nH]ccc4c3F)cc1-2)c1cccc(CCC(=O)O)c1F (single isomer, unassigned) [Example 14, 3-[3-[1-[14-[(4,6-difluoro-1H-indol-5-yl)oxy]-8-hydroxy-10-oxa-3,5,6-triazatricyclo[9.4.0.02,6]pentadeca-1(15),2,4,11,13-pentaen-4-yl]ethyl]-2-fluoro-phenyl]propanoic acid] | A (A: T ≥ 8° C.) | B (“B” refers to AUC @ 10 uM between 4-12)
7 | CC(c1nc2n(n1)CCOc1ccc(Oc3c(F)cc4[nH]ccc4c3F)cc1-2)c1cccc(CCC(=O)O)c1F (single isomer, unassigned) [Example 15, 3-[3-[1-[10-[(4,6-difluoro-1H-indol-5-yl)oxy]-5,6-dihydro-[1,2,4]triazolo[1,5-d][1,4]benzoxazepin-2-yl]ethyl]-2-fluoro-phenyl]propanoic acid] | A (A: T ≥ 8° C.) | A (“A” refers to AUC @10 uM >= 12)
8 | CC(c1nc2n(n1)CCOc1ccc(Oc3c(F)cc4[nH]ccc4c3F)cc1-2)c1cccc(CCC(=O)O)c1F (single isomer, unassigned) [Example 16, 3-[3-[1-[10-[(4,6-difluoro-1H-indol-5-yl)oxy]-5,6-dihydro-[1,2,4]triazolo[1,5-d][1,4]benzoxazepin-2-yl]ethyl]-2-fluoro-phenyl]propanoic acid] | C (C: ≤ 4° C.) | 
9 | CC(c1cccc(CC(=O)O)c1F)c1cnc2c3cc(Oc4c(F)cc5[nH]ccc5c4F)ccc3ccn12 (stereo not shown) [Example 3, 2-(3-(1-(9-((4,6-difluoro-1H-indol-5-yl)oxy)imidazo[2,1-a]isoquinolin-3-yl)ethyl)-2-fluorophenyl)acetic acid] | A (A: T ≥ 8° C.) | A (“A” refers to AUC @10 uM >= 12)
10 | O=C(O)CCc1cccc(Cc2nc3n(n2)Cc2ccc(Oc4c(F)cc5[nH]ccc5c4F)cc2-3)c1F [Example 4, 3-(3-((8-((4,6-difluoro-1H-indol-5-yl)oxy)-5H-triazolo[5,1-a]isoindol-2-yl)methyl)-2-fluorophenyl)propanoic acid] | B (B: 4-8° C.) | B (“B” refers to AUC @ 10 uM between 4-12)
11 | CC(c1cccc(CCC(=O)O)c1F)c1cnc2c3cc(Oc4c(F)cc5[nH]ccc5c4F)ccc3ccn12 (stereo not shown) [Example 7, 3-(3-(1-(9-((4,6-difluoro-1H-indol-5-yl)oxy)imidazo[2,1-a]isoquinolin-3-yl)ethyl)-2-fluorophenyl)propanoic acid] | A (A: T ≥ 8° C.) | 
12 | CC(c1cn2c(n1)-c1cc(Oc3c(F)cc4[nH]ccc4c3F)ccc1CCC2)c1cccc(CCC(=O)O)c1F (stereo not shown) [Example 8, 3-(3-(1-(10-((4,6-difluoro-1H-indol-5-yl)oxy)-6,7-dihydro-5H-benzo[c]imidazo[1,2-a]azepin-2-yl)ethyl)-2-fluorophenyl)propanoic acid] | A (A: T ≥ 8° C.) | 
13 | CC(c1nc2n(n1)CCCc1ccc(Oc3c(F)cc4[nH]ccc4c3F)cc1-2)c1cccc(CCC(=O)O)c1F (stereo not shown) [Example 9, 3-(3-(1-(10-((4,6-difluoro-1H-indol-5-yl)oxy)-6,7-dihydro-5H-benzo[c][1,2,4]triazolo[1,5-a]azepin-2-yl)ethyl)-2-fluorophenyl)propanoic acid] | B (B: 4-8° C.) | 
14 | COC(=O)CCc1cccc(C(C)c2nc3n(n2)CCCOc2ccc(Oc4c(F)cc5[nH]ccc5c4F)cc2-3)c1F (stereo not shown) [Example 10, methyl 3-(3-(1-(11-((4,6-difluoro-1H-indol-5-yl)oxy)-6,7-dihydro-5H-benzo[b][1,2,4]triazolo[5,1-d][1,5]oxazocin-2-yl)ethyl)-2-fluorophenyl)propanoate] | C (C: ≤ 4° C.) | C (“C” refers to AUC @10 uM <= 4)
15 | CC(c1nc2n(n1)CCCOc1ccc(Oc3c(F)cc4[nH]ccc4c3F)cc1-2)c1cccc(CCC(=O)O)c1F (stereo not shown) [Example 11, 3-[3-[1-[14-[(4,6-difluoro-1H-indol-5-yl)oxy]-10-oxa-3,5,6-triazatricyclo[9.4.0.02,6]pentadeca-1(15),2,4,11,13-pentaen-4-yl]ethyl]-2-fluoro-phenyl]propanoic acid] | A (A: T ≥ 8° C.) | C (“C” refers to AUC @10 uM <= 4)
16 | CC(c1nc2n(n1)CC(CO)Oc1ccc(Oc3c(F)cc4[nH]ccc4c3F)cc1-2)c1cccc(CCC(=O)O)c1F (stereo not shown) [Example 12, 3-[3-[1-[10-[(4,6-difluoro-1H-indol-5-yl)oxy]-6-(hydroxymethyl)-5,6-dihydro-[1,2,4]triazolo[1,5-d][1,4]benzoxazepin-2-yl]ethyl]-2-fluoro-phenyl]propanoic acid] | A (A: T ≥ 8° C.) | 
